Literature values, collected in patent US10729136B2, “Synergistic herbicidal composition and use thereof” (priority 2015, dated 2020).

How the values were obtained:
[1] = 0.05% Rhodasurf DA630 solution, pH 5.5, after 10 days

SMILES: CS(=O)(=O)c1ccc(C(=O)C2C(=O)CCCC2=O)c([N+](=O)[O-])c1 [Form 2, 2-(4-mesyl-2-nitrobenzoyl)cyclohexane-1,3-dione]
- Polymorphic form of the suspension, determined periodically (pH between 3.5 and 4, over 3 weeks): always found to be Form 2
- Time for Form 2 to transform to Form 1 (stirred aqueous suspension, below pH 2.5): ≤ 1 h
- Conversion of Form 2 to Form 1 when seeded (stirred aqueous suspension, pH 3, seeded with Form 1): converted to Form 1 when seeded with Form 1 over four hours
- Polymorphic stability of Form 2 (stirred aqueous suspension, pH 3, unseeded): stable
- Polymorphic form (microscopy, FT-IR) [1]: still predominately Form 2
